We go through four molecules from US20130296363A1, “QUINOLINE AND ISOQUINOLINE DERIVATIVES FOR USE AS JAK MODULATORS” (AMBIT BIOSCIENCES CORPORATION, priority 2010, published 2013).

Molecules are shown by their SMILES. A value given as a limit tells only on which side of the number the result lay.

For assay [1], the target named is T1, JAK2 (Homo sapiens, UniProt O60674).
T1 construct: made in house
As to the kind of experiment: Competition binding assay to determine Kd against JAK kinases: JAK2. As for the experimental part:
(§1) Competition binding assays used herein were developed, validated and performed as described in Fabian et al., Nature Biotechnology 2005, 23, 329-336. Kinases were produced as fusions to T7 phage (See, Fabian et al. or WO04/015142) or alternatively, the kinases were expressed in HEK-293 cells and subsequently tagged with DNA for PCR detection (See, WO08/005,310). For the binding assays, streptavidin-coated magnetic beads were treated with biotinylated affinity ligands for 30 min at rt to generate affinity resins. The liganded beads were blocked with excess biotin and washed with blocking buffer (SeaBlock (Pierce), 1% BSA, 0.05% Tween 20, 1 mM DTT) to remove unbound ligand and to reduce non-specific binding. Binding reactions were assembled by combining kinase, liganded affinity beads, and test compounds in 1× binding buffer (20% SeaBlock, 0.17×PBS, 0.05% Tween 20, 6 mM DTT). Test compounds were prepared as 100× stocks in DMSO and rapidly diluted into the aqueous environment. DMSO was added to control assays lacking a test compound. Primary screen interactions were performed in polypropylene 384-well plates in a final volume of 34 μL, while Kd determinations were performed in polystyrene 96-well plates in a final volume of 135 μL. The assay plates were incubated at room temperature with shaking for 1 hour, long enough for binding reactions to reach equilibrium, and the affinity beads were washed extensively with wash buffer (1×PBS, 0.05% Tween 20) to remove unbound protein. The beads were then resuspended in elution buffer (1×PBS, 0.05% Tween 20, 2 μM non-biotinylated affinity ligand) and incubated at room temperature with shaking for 30 min. The kinase concentration in the eluates was measured by quantitative PCR. Each kinase was tested individually against each compound. Kds were determined using eleven serial threefold dilutions. A selectivity score, which is a quantitative measure of selectivity of a compound against a panel of enzymes, may be calculated for a compound by dividing the number of enzymes for which a compound meets a set criteria, (for example, a binding constant of 100 nM or less), by the total number of enzymes tested.

The target in assay [2] is T2, JAK3 (Homo sapiens, UniProt P52333).
T2 construct: made in house
T2 sequence (P52333 1-1124): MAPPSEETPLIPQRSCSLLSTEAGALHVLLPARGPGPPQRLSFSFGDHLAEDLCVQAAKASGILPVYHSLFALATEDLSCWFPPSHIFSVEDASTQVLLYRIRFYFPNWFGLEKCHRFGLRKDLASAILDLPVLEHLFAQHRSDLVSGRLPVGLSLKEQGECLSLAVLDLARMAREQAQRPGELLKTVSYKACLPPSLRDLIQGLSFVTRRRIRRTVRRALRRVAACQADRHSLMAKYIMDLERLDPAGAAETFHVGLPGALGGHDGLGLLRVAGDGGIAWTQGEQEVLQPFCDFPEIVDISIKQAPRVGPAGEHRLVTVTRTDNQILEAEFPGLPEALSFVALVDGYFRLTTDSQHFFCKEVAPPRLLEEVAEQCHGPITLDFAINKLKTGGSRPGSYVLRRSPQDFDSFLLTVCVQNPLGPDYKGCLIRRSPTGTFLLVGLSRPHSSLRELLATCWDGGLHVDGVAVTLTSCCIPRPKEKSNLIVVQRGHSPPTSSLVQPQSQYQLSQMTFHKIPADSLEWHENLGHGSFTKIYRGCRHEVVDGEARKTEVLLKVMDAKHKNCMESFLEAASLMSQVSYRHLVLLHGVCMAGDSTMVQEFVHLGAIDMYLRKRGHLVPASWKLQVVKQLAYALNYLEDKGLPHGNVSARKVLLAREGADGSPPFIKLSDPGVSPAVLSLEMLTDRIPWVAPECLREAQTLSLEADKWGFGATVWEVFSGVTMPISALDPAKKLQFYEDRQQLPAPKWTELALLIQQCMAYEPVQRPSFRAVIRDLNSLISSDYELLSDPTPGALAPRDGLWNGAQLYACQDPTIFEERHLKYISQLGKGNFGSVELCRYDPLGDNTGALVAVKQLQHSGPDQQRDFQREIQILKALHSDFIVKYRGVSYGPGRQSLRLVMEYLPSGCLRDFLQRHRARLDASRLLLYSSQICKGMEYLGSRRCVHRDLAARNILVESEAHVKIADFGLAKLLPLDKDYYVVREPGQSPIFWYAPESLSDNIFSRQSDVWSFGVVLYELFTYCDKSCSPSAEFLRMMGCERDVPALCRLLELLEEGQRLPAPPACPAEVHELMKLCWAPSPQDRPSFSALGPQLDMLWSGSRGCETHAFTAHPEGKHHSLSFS
As to the kind of experiment: Competition binding assay to determine Kd against JAK kinases: JAK3. As for the experimental part:
as §1

Assay [3] addresses T3, TYK2 (Homo sapiens, UniProt P29597).
T3 construct: made in house
As to the kind of experiment: Competition binding assay to determine Kd against JAK kinases: TYK2. As to the method:
as §1

Assay [4] deals with panel of distinct kinases excluding mutant variants, typically 359 or 386 kinases. Kind of assay: Kinase selectivity score S10 from competition binding panel. The note with it: compound at 10 μM; fraction of kinases with inhibition of 90% or greater. As to the method:
as §1

The test system of assay [5] is GM-CSFR/JAK2/STAT5 pathway in CSTF-1 cells. As to the kind of experiment: CSTF-1 cell-based reporter assay (beta-lactamase reporter, GM-CSF stimulated). The note with it: Homo sapiens, GM-CSF at 2 ng/mL, 4 hours, read-out: Cell Assay: CS TF-1 reporter assay IC50. As for the experimental part: CSTF-1 cells are derived from the human erythroleukemia cell line that is growth dependent on GM-CSF and has an intact GM-CSFR/JAK2/STAT5 pathway. The cell line contains stably integrated beta-lactamase reporter gene under the control of the […] (irf 1) response element recognized by the activated transcription factor STAT5. csTF-1 cells (Invitrogen K1219) were washed with assay media (97% OPTIMEM/0.5% dialyzed FBS/0.1 mM NEAA/1 mM Na pyr/P/S) and seeded in the same media at 5×10^5 cell/mL in T150 flask. After 16 hour incubation, cells were seeded at 2×10^5 cell/well in 50 μl volume, into Costar, clear bottom, 96-well assay plates. Serial dilutions of compounds were added to the plates with final DMSO concentration at 0.5% and GM-CSF at 2 ng/mL and the plates were then incubated at 30° C. and 5% CO2 for 4 hours. The plates were brought to room temperature before adding Substrate Mixture according to manufacturer's protocol (Invitrogen, Catalog #K1085). The assay plates containing the substrate mixture were incubated in the dark at room temperature for 2 hours. Blue and green fluorescence was measured with excitation at 409 nm and emission at 460 nm (for blue) and excitation at 409 nm and emission at 530 nm (for green) using Spectra Max Gemini EM.

T3 sequence (P29597 whole entry): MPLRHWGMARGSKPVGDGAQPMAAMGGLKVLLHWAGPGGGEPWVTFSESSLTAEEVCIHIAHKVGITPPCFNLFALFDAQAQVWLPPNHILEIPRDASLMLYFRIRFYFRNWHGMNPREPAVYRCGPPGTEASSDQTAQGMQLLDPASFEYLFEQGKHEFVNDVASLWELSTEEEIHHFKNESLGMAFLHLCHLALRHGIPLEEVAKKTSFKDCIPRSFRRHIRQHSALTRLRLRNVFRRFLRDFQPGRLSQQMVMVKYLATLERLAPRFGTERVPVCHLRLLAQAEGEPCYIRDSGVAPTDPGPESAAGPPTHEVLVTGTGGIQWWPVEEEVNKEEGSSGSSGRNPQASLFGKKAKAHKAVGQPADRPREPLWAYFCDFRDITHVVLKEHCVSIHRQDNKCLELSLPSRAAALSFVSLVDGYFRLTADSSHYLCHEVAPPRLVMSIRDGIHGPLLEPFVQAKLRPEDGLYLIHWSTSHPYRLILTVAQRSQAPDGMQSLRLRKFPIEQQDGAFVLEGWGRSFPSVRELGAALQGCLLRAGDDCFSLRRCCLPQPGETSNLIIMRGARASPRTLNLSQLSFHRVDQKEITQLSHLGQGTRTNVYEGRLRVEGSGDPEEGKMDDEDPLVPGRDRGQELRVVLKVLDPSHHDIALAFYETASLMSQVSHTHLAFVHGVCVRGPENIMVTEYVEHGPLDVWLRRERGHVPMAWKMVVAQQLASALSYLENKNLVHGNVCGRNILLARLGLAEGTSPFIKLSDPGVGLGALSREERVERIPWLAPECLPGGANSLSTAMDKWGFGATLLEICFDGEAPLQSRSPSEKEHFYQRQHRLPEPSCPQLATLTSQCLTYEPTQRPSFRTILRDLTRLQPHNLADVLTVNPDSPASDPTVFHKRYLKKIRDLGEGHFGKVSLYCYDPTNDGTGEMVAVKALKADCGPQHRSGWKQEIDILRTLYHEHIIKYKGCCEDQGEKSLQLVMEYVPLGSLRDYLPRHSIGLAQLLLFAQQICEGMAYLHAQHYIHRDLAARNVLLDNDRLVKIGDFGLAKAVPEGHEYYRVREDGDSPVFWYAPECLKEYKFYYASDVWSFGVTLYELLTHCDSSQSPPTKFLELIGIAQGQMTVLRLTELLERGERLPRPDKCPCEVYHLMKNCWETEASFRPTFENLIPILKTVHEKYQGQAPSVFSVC
T1 sequence (O60674 whole entry): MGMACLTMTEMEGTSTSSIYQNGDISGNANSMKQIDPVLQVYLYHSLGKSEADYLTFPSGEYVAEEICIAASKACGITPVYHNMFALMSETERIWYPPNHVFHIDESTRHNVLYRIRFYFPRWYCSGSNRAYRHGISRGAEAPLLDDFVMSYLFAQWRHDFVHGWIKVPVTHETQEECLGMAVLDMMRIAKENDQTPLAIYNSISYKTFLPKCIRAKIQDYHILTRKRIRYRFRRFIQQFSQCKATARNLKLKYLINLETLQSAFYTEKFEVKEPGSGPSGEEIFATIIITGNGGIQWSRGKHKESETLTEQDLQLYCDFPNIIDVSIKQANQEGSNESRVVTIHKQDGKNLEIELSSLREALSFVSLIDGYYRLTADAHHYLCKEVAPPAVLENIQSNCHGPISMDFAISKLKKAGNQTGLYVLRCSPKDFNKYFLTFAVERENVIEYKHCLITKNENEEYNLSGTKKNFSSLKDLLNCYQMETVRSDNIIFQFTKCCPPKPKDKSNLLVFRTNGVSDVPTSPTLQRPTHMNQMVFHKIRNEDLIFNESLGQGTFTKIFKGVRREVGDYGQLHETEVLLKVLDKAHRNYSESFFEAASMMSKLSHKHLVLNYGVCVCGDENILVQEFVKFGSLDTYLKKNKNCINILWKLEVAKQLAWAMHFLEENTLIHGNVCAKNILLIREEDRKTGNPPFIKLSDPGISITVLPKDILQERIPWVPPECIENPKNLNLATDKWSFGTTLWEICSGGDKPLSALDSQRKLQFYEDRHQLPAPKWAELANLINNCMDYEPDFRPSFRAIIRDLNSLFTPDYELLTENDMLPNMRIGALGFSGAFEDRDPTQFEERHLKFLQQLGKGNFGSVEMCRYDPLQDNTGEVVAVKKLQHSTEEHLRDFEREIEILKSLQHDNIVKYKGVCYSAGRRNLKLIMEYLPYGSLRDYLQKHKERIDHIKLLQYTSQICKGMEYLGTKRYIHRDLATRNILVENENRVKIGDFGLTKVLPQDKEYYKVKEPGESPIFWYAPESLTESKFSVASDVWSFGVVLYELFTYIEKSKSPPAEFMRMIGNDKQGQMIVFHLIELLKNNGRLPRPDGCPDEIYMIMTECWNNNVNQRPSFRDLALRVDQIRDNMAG

What is called Kd is the concentration at which binding is half-saturated. What is called IC50 is the concentration that gives 50% inhibition. As to `O=S(=O)(c1ccc(F)cc1)c1cc2ccccc2c(Nc2ncns2)n1` [Example 18, N-(3-(4-fluorophenylsulfonyl)isoquinolin-1-yl)-1,2,4-thiadiazol-5-amine], the equilibrium dissociation constant (Kd) is at most 0.005 µM in assay [1], 0.01 to 0.1 µM in assay [2] and at most 0.01 µM in assay [3]. For the same molecule, the “S-Score: S(10) at 10 μM” value in assay [4] is listed as “B (0.3 < B ≦ 0.4)”. The IC50 in assay [5] was 0.1 to 0.5 µM.

With `O=S(=O)(c1ccc(F)cc1)c1cc2ccccc2c(Nc2ncco2)n1` [Example 23, N-(3-(4-fluorophenylsulfonyl)isoquinolin-1-yl)oxazol-2-amine], the Kd in assay [1] is above 0.05 µM; in assay [2], above 0.1 µM; in assay [3] it was above 0.1 µM. Moreover, the “S-Score: S(10) at 10 μM” value in assay [4] is listed as “A (A ≦ 0.3)”. Further, in assay [5], the half-maximal inhibitory concentration (IC50) was above 0.5 µM.

Regarding `Cc1cc(Nc2nc(S(=O)(=O)c3ccc(F)cc3)cc3c(Br)cccc23)n[nH]1` [Example 26, 5-bromo-3-((4-fluorophenyl)sulfonyl)-N-(5-methyl-1H-pyrazol-3-yl)isoquinolin-1-amine], the Kd was at most 0.005 µM in assay [1], at most 0.01 µM in assay [2] and at most 0.01 µM in assay [3]. For the same molecule, the “S-Score: S(10) at 10 μM” value in assay [4] is “A (A ≦ 0.3)”. In addition, the IC50 in assay [5] is at most 0.1 µM.

For the molecule `Cn1cnc(Nc2nc(S(=O)(=O)c3ccc(F)cc3)cc3ccccc23)c1` [Example 20, 3-(4-fluorophenylsulfonyl)-N-(1-methyl-1H-imidazol-4-yl)isoquinolin-1-amine], the Kd in assay [1] is at most 0.005 µM; in assay [2], at most 0.01 µM; in assay [3], at most 0.01 µM. Moreover, the “S-Score: S(10) at 10 μM” value in assay [4] was “C (0.4 < C ≦ 0.5)”. In addition, in assay [5], the 50% inhibitory concentration (IC50) is at most 0.1 µM.
